Where two headings read alike, the source gives them in different places.
What was measured:
[1] = tested on: olfactory epithelium (nasal turbinates); assay type: in vivo, rats
Description: Compound I and Compound II were also compared directly for intranasal irritation. […] The only endpoint evaluated in this study was histological evaluation of the nasal turbinates.

[2] = tested on: olfactory epithelium (nasal tissues); assay: One-week comparative intranasal irritation study in rats (Compound I vs Compound III): nasal histology and tolerability; assay type: in vivo; details: 1 week
Method: This study was conducted to compare potential nasal irritation of Compound I to Compound III when given intranasally to male rats for 1 week. Male rats (10/group) were instilled intranasally with Compound I or Compound III solutions ([…] in 225 mM succinic acid, 0.02% benzalkonium chloride, 1.25% anhydrous dextrose, pH 5.8-6.2) once daily at a dose volume of 100 μL/nostril. Using this dosing paradigm, fixed doses of 5, 15 or 35 mg of test article were delivered daily. As a consequence, dosages normalized to body weight decreased with time as the rats grew. One control group was given succinate vehicle and a sham control group was given saline by intranasal instillation. Parameters evaluated included clinical observations, body weight, food consumption, toxicokinetics, and histological evaluation of nasal tissues.

[3] = 12.5 μL/nostril, 75 mg/ml, 1.875 mg/rat/day (0.134 mg/cm^2)
[4] = 12.5 μL/nostril, 175 mg/ml, 4.375 mg/rat/day (0.313 mg/cm^2)
[5] = 25 μL/nostril, 75 mg/ml, 3.75 mg/rat/day (0.268 mg/cm^2)
[6] = 25 μL/nostril, 175 mg/ml, 8.75 mg/rat/day (0.625 mg/cm^2)
[7] = 100 μL/nostril, 75 mg/ml, 15 mg/rat/day (1.071 mg/cm^2)
[8] = 100 μL/nostril, 175 mg/ml, 35 mg/rat/day (2.500 mg/cm^2)
[9] = nasal instillation 5 mg (0.357 mg/cm^2) once daily
[10] = nasal instillation 15 mg (1.07 mg/cm^2) once daily
[11] = nasal instillation 35 mg (2.50 mg/cm^2) once daily

Cc1cc(C[C@@H](NC(=O)N2CCC(C3Cc4cccc(F)c4NC3=O)CC2)C(=O)N2CCC(N3CCCCC3)CC2)cc2cn[nH]c12 (stereo partly shown) [Compound II]
3: Olfactory epithelial toxicity, number of animals with severity None [1, 3] | Olfactory epithelial toxicity, number of animals with severity None [1, 4] | Olfactory epithelial toxicity, number of animals with severity Minimal [1, 6] | Olfactory epithelial toxicity, number of animals with severity Moderate [1, 8]
1: Olfactory epithelial toxicity, number of animals with severity Mild [1, 3] | Olfactory epithelial toxicity, number of animals with severity Slight [1, 3] | Olfactory epithelial toxicity, number of animals with severity Mild [1, 4] | Olfactory epithelial toxicity, number of animals with severity Minimal [1, 4] | Olfactory epithelial toxicity, number of animals with severity Slight [1, 5] | Olfactory epithelial toxicity, number of animals with severity None [1, 6] | Olfactory epithelial toxicity, number of animals with severity Slight [1, 6] | Olfactory epithelial toxicity, number of animals with severity Mild [1, 7]
4: Olfactory epithelial toxicity, number of animals with severity Slight [1, 7]
2: Olfactory epithelial toxicity, number of animals with severity Minimal [1, 5] | Olfactory epithelial toxicity, number of animals with severity None [1, 5] | Olfactory epithelial toxicity, number of animals with severity Mild [1, 8]

Cc1cc(C[C@@H](NC(=O)N2CCC(c3cc4ccccc4[nH]c3=O)CC2)C(=O)N2CCC(N3CCCCC3)CC2)cc2cn[nH]c12 [Compound III, reference compound]
6: Olfactory Epithelial Atrophy, incidence of severity Minimal (number of rats) [2, 9] | Olfactory Epithelial Atrophy, incidence of severity Moderate (number of rats) [2, 10]
1: Olfactory Epithelial Atrophy, incidence of severity None (number of rats) [2, 9] | Olfactory Epithelial Atrophy, incidence of severity None (number of rats) [2, 10] | Olfactory Epithelial Atrophy, incidence of severity Marked (number of rats) [2, 11]
2: Olfactory Epithelial Atrophy, incidence of severity Mild (number of rats) [2, 9] | Olfactory Epithelial Atrophy, incidence of severity Mild (number of rats) [2, 10] | Olfactory Epithelial Atrophy, incidence of severity Mild (number of rats) [2, 11]
3: Olfactory Epithelial Atrophy, incidence of severity Moderate (number of rats) [2, 11] | Olfactory Epithelial Atrophy, incidence of severity None (number of rats) [2, 11]
0: Olfactory Epithelial Atrophy, incidence of severity Marked (number of rats) [2, 9] | Olfactory Epithelial Atrophy, incidence of severity Moderate (number of rats) [2, 9] | Olfactory Epithelial Atrophy, incidence of severity Marked (number of rats) [2, 10] | Olfactory Epithelial Atrophy, incidence of severity Minimal (number of rats) [2, 10] | Olfactory Epithelial Atrophy, incidence of severity Minimal (number of rats) [2, 11]
